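In this assay, cells in 96-well plates receive the compound at five concentrations for 48 hours. Endpoints are linearly interpolated between the surrounding concentrations. Abbreviation: GI50, concentration required for 50% inhibition of growth. TGI: total growth inhibition.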 Some results are limits rather than exact numbers.

This is an account of results in PubChem BioAssay (NCI).

Test systems include A498 renal; DU-145 prostate; HL-60(TB) leukemia; HOP-62 NSCLC; HOP-92 NSCLC; M14 melanoma; NCI-H226 lung; OVCAR-4 ovarian; RPMI-8226 leukemia; RXF 393 renal.
Holding throughout (assay): inhibition of tumour cell growth, NCI panel, 48 h

Regarding `Cc1ccc(NC(=O)c2cccc(C(C)(C)C#N)c2)cc1Nc1ccc2ncn(C)c(=O)c2c1`, the GI50 was 0.742 µM in the assay on A498 renal; 5.66 µM in the assay with DU-145 prostate; 0.0547 µM with HL-60(TB) leukemia; 1.11 µM with HOP-62 NSCLC; 0.287 µM in the assay on HOP-92 NSCLC; 0.019 µM in the assay with M14 melanoma. Moreover, the GI50 in the assay with NCI-H226 lung was 5.62 µM; in the assay on OVCAR-4 ovarian, 3.9 µM; with RPMI-8226 leukemia, 3.25 µM; in the assay with RXF 393 renal, 6.87 µM. The TGI is 4.08 µM in the assay on A498 renal; above 100 µM with DU-145 prostate; 13.9 µM in the assay with HL-60(TB) leukemia; above 100 µM in the assay on HOP-62 NSCLC; 4.98 µM with HOP-92 NSCLC; above 100 µM with NCI-H226 lung. Further, the TGI was above 100 µM with OVCAR-4 ovarian, above 100 µM in the assay on RPMI-8226 leukemia and above 73.4 µM in the assay with RXF 393 renal.

For `Cc1cc(C(=O)Nc2ccc3cc(CN4CCOCC4)ccc3n2)c(C)n1-c1ccccc1`, the GI50 in the assay on A498 renal is 3.09 µM; in the assay with DU-145 prostate, 3.6 µM; in the assay with HL-60(TB) leukemia it was 1.71 µM; in the assay on HOP-62 NSCLC, 1.72 µM; in the assay with HOP-92 NSCLC it was 2.15 µM; in the assay with M14 melanoma, 1.81 µM. Also, the GI50 in the assay with NCI-H226 lung was 0.374 µM; in the assay with OVCAR-4 ovarian, 1.24 µM; in the assay on RPMI-8226 leukemia it was 0.822 µM; in the assay with RXF 393 renal it was 2.18 µM. Further, the TGI in the assay with A498 renal is 64.2 µM; in the assay on DU-145 prostate, 35.7 µM; with HL-60(TB) leukemia, 5.06 µM; in the assay on HOP-62 NSCLC it was 8.05 µM; in the assay with HOP-92 NSCLC, 40.3 µM; in the assay with M14 melanoma, 5.71 µM. In addition, the TGI in the assay with NCI-H226 lung was 5.92 µM; in the assay with OVCAR-4 ovarian it was above 23.8 µM; with RPMI-8226 leukemia it was 3.73 µM; in the assay with RXF 393 renal it was 7.01 µM.

In the case of `CC(C)c1ccc(-c2cc(-c3cn[nH]c3-c3ccccn3)ccn2)cc1`, the GI50 is above 13.6 µM with A498 renal; 16 µM with DU-145 prostate; 11.4 µM with HL-60(TB) leukemia; 12 µM with HOP-62 NSCLC; 1.99 µM with HOP-92 NSCLC; 14.4 µM with M14 melanoma. Further, the GI50 in the assay with NCI-H226 lung is 12.1 µM; with OVCAR-4 ovarian, 10.4 µM; in the assay with RPMI-8226 leukemia, 11.9 µM; with RXF 393 renal it was above 18.5 µM. Moreover, the TGI with A498 renal, in the assay with DU-145 prostate, in the assay with HL-60(TB) leukemia, in the assay on HOP-62 NSCLC, in the assay with HOP-92 NSCLC and with M14 melanoma was above 25 µM in each case. Further, the TGI in the assay on NCI-H226 lung, in the assay on OVCAR-4 ovarian, with RPMI-8226 leukemia and in the assay on RXF 393 renal was above 25 µM each time.

For the compound `CN1CCN(CCCNc2nc3ccc(Oc4ccc(NC(=O)Nc5cc(C(F)(F)F)ccc5F)cc4)cc3[nH]2)CC1`, the GI50 in the assay with A498 renal was 2.93 µM; in the assay on DU-145 prostate, 5.17 µM; with HL-60(TB) leukemia, 5.2 µM; in the assay with HOP-62 NSCLC it was 3.84 µM; in the assay with HOP-92 NSCLC, 2.91 µM; with M14 melanoma it was 4.54 µM. For the same compound, the GI50 is 5.55 µM in the assay with NCI-H226 lung, 5.88 µM with OVCAR-4 ovarian, 5.88 µM in the assay on RPMI-8226 leukemia and 4.07 µM with RXF 393 renal. Further, the TGI in the assay with A498 renal is above 18.9 µM; in the assay on DU-145 prostate, 12.5 µM; with HL-60(TB) leukemia it was 10.3 µM; in the assay with HOP-62 NSCLC, 7.25 µM; in the assay on HOP-92 NSCLC it was 12.1 µM; with M14 melanoma, 8.61 µM. For the same compound, the TGI was 16.8 µM with NCI-H226 lung, above 19.5 µM with OVCAR-4 ovarian, 14 µM in the assay with RPMI-8226 leukemia and 9.17 µM in the assay with RXF 393 renal.

For `CC(C)c1c(O)c(O)c2c(c1O)C(=O)C(O)=C1C(C)(C)CCC[C@@]12C`, the TGI in the assay on A498 renal was 11.9 µM; in the assay with DU-145 prostate it was 18.1 µM; in the assay on HL-60(TB) leukemia, 4.78 µM; in the assay on HOP-62 NSCLC, above 100 µM; with HOP-92 NSCLC, 5.63 µM; in the assay with M14 melanoma, 19.3 µM. Also, the TGI was 7.88 µM in the assay on NCI-H226 lung, 16.7 µM in the assay on OVCAR-4 ovarian, 3.99 µM in the assay with RPMI-8226 leukemia and 9.24 µM in the assay with RXF 393 renal.

With `C/C(=N\Nc1ccc(Cl)cn1)c1ccc2ccccc2n1`, the GI50 was 33.4 µM in the assay on A498 renal; 4.03 µM in the assay on DU-145 prostate; 2.18 µM with HL-60(TB) leukemia; 2.83 µM with HOP-62 NSCLC; 2.25 µM with HOP-92 NSCLC; 2.39 µM with M14 melanoma. The GI50 in the assay with NCI-H226 lung is 11.5 µM; in the assay on OVCAR-4 ovarian it was 1.52 µM; in the assay on RPMI-8226 leukemia it was 2.05 µM; in the assay on RXF 393 renal, 2.95 µM. For the same compound, the TGI with A498 renal was above 100 µM; with DU-145 prostate it was above 100 µM; in the assay with HL-60(TB) leukemia, 8.95 µM; in the assay with HOP-62 NSCLC, above 100 µM; in the assay with HOP-92 NSCLC, above 100 µM; in the assay with M14 melanoma it was 13.7 µM. Moreover, the TGI in the assay with NCI-H226 lung, in the assay with OVCAR-4 ovarian, with RPMI-8226 leukemia and with RXF 393 renal was above 100 µM in each case.

`COc1ccc(C(=O)c2cc(OC)c(OC)c(OC)c2)cc1/C=C/C(=O)c1ccc(F)cc1`: the GI50 with A498 renal was 14 µM; in the assay on DU-145 prostate it was 7.72 µM; in the assay with HL-60(TB) leukemia, 4.8 µM; in the assay with HOP-62 NSCLC it was 3.92 µM; in the assay on HOP-92 NSCLC, 2.7 µM; with M14 melanoma, 3.39 µM. The GI50 is 3.57 µM in the assay on NCI-H226 lung, 4.55 µM with OVCAR-4 ovarian, 2.32 µM with RPMI-8226 leukemia and 7.29 µM in the assay with RXF 393 renal. In addition, the TGI is 29.9 µM in the assay with A498 renal; 21 µM in the assay with DU-145 prostate; above 100 µM in the assay with HL-60(TB) leukemia; 26.7 µM in the assay with HOP-62 NSCLC; 34.9 µM in the assay with HOP-92 NSCLC; 18 µM in the assay on M14 melanoma. Further, the TGI in the assay on NCI-H226 lung amounted to 18.1 µM; in the assay on OVCAR-4 ovarian it was 33.6 µM; with RPMI-8226 leukemia it was 6.98 µM; in the assay on RXF 393 renal, 23.3 µM.

With `NS(=O)(=O)c1ccc(-c2ccc3c(NC(=O)C4CC4)n[nH]c3c2)cc1`, the GI50 in the assay on A498 renal is above 25 µM; in the assay with DU-145 prostate it was above 25 µM; in the assay on HL-60(TB) leukemia it was above 25 µM; in the assay with HOP-62 NSCLC it was above 25 µM; with HOP-92 NSCLC, 16.6 µM; in the assay with M14 melanoma it was above 25 µM. Besides, the GI50 with NCI-H226 lung, with OVCAR-4 ovarian, with RPMI-8226 leukemia and with RXF 393 renal was above 25 µM throughout. Also, the TGI with A498 renal, in the assay with DU-145 prostate, in the assay on HL-60(TB) leukemia, in the assay on HOP-62 NSCLC, with HOP-92 NSCLC and in the assay on M14 melanoma was above 25 µM in each case. Moreover, the TGI in the assay on NCI-H226 lung, with OVCAR-4 ovarian, in the assay with RPMI-8226 leukemia and with RXF 393 renal was above 25 µM each time.
